Earlier results as cited in patent US9968555B2, “Liposomal formulations that form drug nanocrystals after freeze-thaw” (ARADIGM CORPORATION, priority 2014, dated 2018).
Values after ≈ are worked out from the molar mass of the structure shown.

System: M. avium

minimum inhibitory concentration (MIC): 5 µg/mL (≈ 15.1 µM)
Structure (SMILES): O=C(O)c1cn(C2CC2)c2cc(N3CCNCC3)c(F)cc2c1=O [ciprofloxacin]
